“And” between values parts separate entries of the source, which are not always exact repeats. Equal values may be shown once.
Experiments:
Format in all cases: cell-based, human
[1] = system: PBMC from allergic donors; assay: IFN-γ ELISPOT with extract-stimulated short-term lines; settings: positive donor/peptide response
Method: (§1) Spots were counted by computer-assisted image analysis (Zeiss, KS-ELISPOT reader, Munich, Germany).
(§2) Each assay was performed in triplicate. The level of statistical significance was determined with a Student's t-test using the mean of triplicate values of the response against relevant pools or individual peptides versus the response against the DMSO control.

[2] = system: PBMC from allergic donors; assay: Dual ELISPOT, total IL-5 and IFN-γ response (SFC); settings: sum of IFNg and IL-5
Method: as §1, §2

[3] = system: PBMC from allergic donors; assay: IL-5 ELISPOT with extract-stimulated short-term lines; settings: positive donor/peptide response
Method: as §1, §2

Compound | Response (SFC/10^6) IFNg ([1]; each table line is one donor) | Response (SFC/10^6) Total ([2]; each table line is one donor) | Response (SFC/10^6) Total ([2]; one donor per table line) | other results
3324.1145 (LRKYGIAAENVIDVK) | 50 SFC/10^6 | 50 SFC/10^6 | – | –
3324.1171 (KTFVETFGTATNKAF) | 73 SFC/10^6 | 73 SFC/10^6 | – | –
3324.0914 (FAFGYFNGRILGVCP) | – | – | 133 SFC/10^6 | Response (SFC/10^6) IFNg ([1]; one donor per table line): 133 SFC/10^6
3324.1180 (PEAKYDAYVATLTEA) | 227 SFC/10^6 | 227 SFC/10^6 | – | –
3324.0100 (MLTLFILIITSTIKA) | 63 SFC/10^6 and 167 SFC/10^6 | 63 SFC/10^6 and 167 SFC/10^6 | – | –
3324.1133 (MASSSSVLLVVALFA) | – | – | 53 SFC/10^6 | Response (SFC/10^6) IFNg ([1]; one donor per table line): 53 SFC/10^6
3324.0384 (VKAFKQVDVVISTVG) | – | – | 1007 SFC/10^6 | Response (SFC/10^6) IFNg ([1]; one donor per table line): 1007 SFC/10^6
3324.0894 (NGKLHLSLIDPSTLS) | – | – | 460 SFC/10^6 | Response (SFC/10^6) IFNg ([1]; one donor per table line): 460 SFC/10^6
3324.1636 (FFSANAAALASRKSS) | 93 SFC/10^6 | 93 SFC/10^6 | – | –
3324.0633 (MLAVVAVVLASMVGG) | – | – | 227 SFC/10^6 | Response (SFC/10^6) IFNg ([1]; one donor per table line): 227 SFC/10^6
CC[C@H](C)[C@H](NC(=O)[C@H](Cc1ccccc1)NC(=O)[C@H](C)NC(=O)[C@H](CCCCN)NC(=O)[C@H](Cc1ccccc1)NC(=O)[C@H](CC(C)C)NC(=O)[C@H](CCCNC(=N)N)NC(=O)[C@H](C)NC(=O)[C@H](C)NC(=O)[C@@H]1CCCN1C(=O)[C@@H](NC(=O)[C@@H](NC(=O)[C@H](CO)NC(=O)[C@@H]1CCCN1)C(C)C)[C@@H](C)CC)C(=O)N[C@@H](CC(C)C)C(=O)O [3324.0004] | – | – | 683 SFC/10^6 | Response (SFC/10^6) IFNg ([1]; one donor per table line): 683 SFC/10^6
3324.0918 (NAMDEIIKSTDAEPA) | – | – | 260 SFC/10^6 | Response (SFC/10^6) IFNg ([1]; one donor per table line): 260 SFC/10^6
3324.1653 (FDLYFSMARGNASLP) | 343 SFC/10^6 | 343 SFC/10^6 | – | –
3337.0007 (GKYCVCYDSKAICNK) | 47 SFC/10^6 | 47 SFC/10^6 | – | –
3324.0652 (LRTLGSTSADEVQRM) | – | – | 113 SFC/10^6 | Response (SFC/10^6) IFNg ([1]; one donor per table line): 113 SFC/10^6
3324.1151 (NEMSWIESIPFVHLG) | 1933 SFC/10^6 | 1933 SFC/10^6 | – | –
3324.1647 (SLATLQSLESIVGKD) | 228 SFC/10^6 | 228 SFC/10^6 | – | –
3324.0997 (GELALFYLQEQINHF) | – | – | 1113 SFC/10^6 | Response (SFC/10^6) IL-5 ([3]; one donor per table line): 1113 SFC/10^6
3324.0969 (TLANPILPASPNATI) | – | – | 167 SFC/10^6 | Response (SFC/10^6) IL-5 ([3]; one donor per table line): 167 SFC/10^6
3324.1181 (VDAAYRTAATAANAA) | – | 383 SFC/10^6 | – | Response (SFC/10^6) IL-5 ([3]; each table line is one donor): 383 SFC/10^6
3324.0970 (EFDAFVAYHIGARIV) | – | – | 123 SFC/10^6 and 763 SFC/10^6 | Response (SFC/10^6) IL-5 ([3]; one donor per table line): 123 SFC/10^6 and 763 SFC/10^6
3324.1593 (FEAARVVFSYCNLSD) | – | 363 SFC/10^6 | – | Response (SFC/10^6) IL-5 ([3]; each table line is one donor): 363 SFC/10^6
3324.1170 (FLAVALVAGPAASYA) | – | 63 SFC/10^6 | – | Response (SFC/10^6) IL-5 ([3]; each table line is one donor): 63 SFC/10^6
3324.0967 (IDNDIALIKLKSPMK) | – | – | 187 SFC/10^6 | Response (SFC/10^6) IL-5 ([3]; one donor per table line): 187 SFC/10^6
3324.1558 (NYLALLVKYVTGDGD) | – | 80 SFC/10^6 | – | Response (SFC/10^6) IL-5 ([3]; each table line is one donor): 80 SFC/10^6
CC[C@H](C)[C@H](NC(=O)[C@H](Cc1c[nH]cn1)NC(=O)[C@H](Cc1ccc(O)cc1)NC(=O)[C@H](C)NC(=O)[C@@H](NC(=O)[C@H](Cc1ccccc1)NC(=O)[C@H](C)NC(=O)[C@H](CC(=O)O)NC(=O)[C@H](Cc1ccccc1)NC(=O)[C@H](CCC(=O)O)NC(=O)[C@H](CC(=O)O)NC(=O)[C@H](Cc1c[nH]cn1)NC(=O)CNC(=O)[C@@H](NC(=O)[C@@H](N)Cc1ccc(O)cc1)C(C)C)C(C)C)C(=O)O [3324.0975] | – | – | 973 SFC/10^6 | Response (SFC/10^6) IL-5 ([3]; one donor per table line): 973 SFC/10^6
3324.1131 (GYVSLQEFVDLNNKG) | – | – | 80 SFC/10^6 and 420 SFC/10^6 | Response (SFC/10^6) IL-5 ([3]; one donor per table line): 80 SFC/10^6 and 420 SFC/10^6
3324.1040 (TIYSNVANLRNWIIS) | – | – | 297 SFC/10^6 | Response (SFC/10^6) IL-5 ([3]; one donor per table line): 297 SFC/10^6

Reference: patent publication US10918713B2, “Epitopes from allergen proteins and methods and uses for immune response modulation” (LA JOLLA INSTITUTE FOR ALLERGY AND IMMUNOLOGY, priority 2012, dated 2021)
